Literature values in US9353109B2, “Flindersia alkaloids, derivatives and analogs: compositions and methods for producing the same” (UNIVERSITY OF HOUSTON SYSTEM, priority 2012, dated 2016).

System: chloroquine-resistant falciparum strains
Conditions: at concentrations that do not affect mammalian cells' viability

| Compound | effectiveness toward chloroquine-resistant falciparum strains |
| --- | --- |
| CC(C)=C[C@H]1C[C@](C)(/C=C/c2[nH]c3ccccc3c2CCN(C)C)n2c1c(CCN(C)C)c1ccccc12 [flinderole B] | show effectiveness toward chloroquine-resistant falciparum strains |
| dimethylisoborreverine | show effectiveness toward chloroquine-resistant falciparum strains |
| CNCCc1c(C2C3C(C=C(C)CC3(C)C)c3c(CCNC)c4ccccc4n32)[nH]c2ccccc12 (stereo not shown) [isoborreverine] | show effectiveness toward chloroquine-resistant falciparum strains |
| CNCCc1c(/C=C/[C@@]2(C)C[C@H](C=C(C)C)c3c(CCNC)c4ccccc4n32)[nH]c2ccccc12 [flinderole A] | show effectiveness toward chloroquine-resistant falciparum strains |
| CC(C)=C[C@H]1C[C@@](C)(/C=C/c2[nH]c3ccccc3c2CCN(C)C)n2c1c(CCN(C)C)c1ccccc12 [flinderole C] | show effectiveness toward chloroquine-resistant falciparum strains |
| C[C@@H]1CC[C@H]2[C@@H](C)C(=O)O[C@@H]3O[C@@]4(C)CC[C@@H]1[C@]32OO4 [artemisinin, reference compound] | show effectiveness toward chloroquine-resistant falciparum strains |
| CCN(CC)CCCC(C)Nc1ccnc2cc(Cl)ccc12 (stereo not shown) [chloroquine, reference compound] | show effectiveness toward chloroquine-resistant falciparum strains |
